≈ marks a conversion by molar mass, not a printed value. Read-outs that look alike come from different tables or passages of the source.
Experiments:
[1] = Solubility of the free acid in water (stated in description); assay type: physicochemical; conditions: stated as approximate in the description
[2] = Relative solubilities in water, 0.1% HCl and methanol; assay type: physicochemical; conditions: 25 °C, 25 deg
Description: The solubility of 3′-[(2Z)-[1-(3,4-dimethylphenyl)-1,5-dihydro-3-methyl-5-oxo-4H-pyrazol-4-ylidene]hydrazino]-2′-hydroxy-[1,1′-biphenyl]-3-carboxylic acid as the free acid (Compound A) and as the bis-(monoethanolamine) salt (Compound B) was determined in three different systems: water, 0.1 HCl and methanol.

[3] = organic solvent or mixture, solvent methanol, read-out: Solubility at 25 deg, methanol
[4] = simulated gastric fluid, solvent 0.1% HCl, read-out: Solubility at 25 deg, 0.1% HCl
[5] = solvent water, read-out: Solubility at 25 deg, Water

solubility [2, 3] [µg/mL]	solubility [2, 4] [µg/mL]	solubility [2, 5] [µg/mL]	Compound	solubility in water [1]
1900 (≈ 4290 µM)	< 1	< 1	CC1=NN(c2ccc(C)c(C)c2)C(=O)/C1=N\Nc1cccc(-c2cccc(C(=O)O)c2)c1O [Compound A, 3′-[(2Z)-[1-(3,4-dimethylphenyl)-1,5-dihydro-3-methyl-5-oxo-4H-pyrazol-4-ylidene]hydrazino]-2′-hydroxy-[1,1′-biphenyl]-3-carboxylic acid]	approximately 5 micrograms per milliliter
6400	< 1	14200	CC1=NN(c2ccc(C)c(C)c2)C(=O)/C1=N\Nc1cccc(-c2cccc(C(=O)O)c2)c1O.NCCO.NCCO [Compound B, 3′-[(2Z)-[1-(3,4-dimethylphenyl)-1,5-dihydro-3-methyl-5-oxo-4H-pyrazol-4-ylidene]hydrazino]-2′-hydroxy-[1,1′-biphenyl]-3-carboxylic acid bis-(monoethanolamine)]	–

— US8846024B2, “3′-[(2Z)-[1-(3,4-dimethylphenyl)-1,5-dihydro-3-methyl-5-oxo-4H-pyrazol-4-ylidene]hydrazino]-2′-hydroxy-[1,1′-biphenyl]-3-carboxylic acid bis-(monoethanolamine)” (GlaxoSmithKline LLC, priority 2002, dated 2014)
